# Data reported in PMC12591182, “PD‐L1‐Targeting Biomimetic Photoresponsive Thermosensitive Liposomes for Triple‐Negative Breast Cancer” (Advanced Science, 2025).
# System: PD-L1 expression in 4T1 cells
# Assay: Immunoblot analysis of PD-L1 expression
# Assay type: cell-based, mouse
# Conditions: 4T1 cells cultured 48 h after exposure at 42 ℃ for 10 min
# Description: fluctuations were continuously recorded using an infrared thermal imaging camera (FLIR E50, USA).
# Cell lysis and immunoblotting
# Cells were washed with PBS and lysed using RIPA buffer supplemented with protease inhibitors. The lysates were subjected to SDS-PAGE (12% or 10% Bis-Tris gel) and subsequently transferred onto a nitrocellulose membrane. The membrane was blocked with TBS-T containing 5% non-fat dry milk, followed by overnight incubation with the primary antibody at 4 °C. After triplicate washing with TBS-T, the membrane was incubated with the HRP-conjugated secondary antibody for 1 h at room temperature and developed using ECL detection reagents.
# The TRIzol reagent was used for RNA extraction according to the manufacturer's instructions. Total RNA was reverse -transcribed into cDNA using an iScript cDNA synthesis kit. Quantitative analysis of the target genes was performed using the Universal SYBR Green Supermix qPCR kit. GAPDH was used as the reference gene for relative quantification normalization, with details of the primer sequences provided in Supplementary Table 1. […]
# The lysis buffer was then neutralized by adding an equal volume of RPMI 1640 medium, followed by centrifugation at 500 × g for 3 min. […] After incubation, the cells were washed with PBS to remove T cells and debris, followed by crystal violet staining to quantify the live cancer cells. […]
substance,measurement,value
"GFTATPPPDSPQEP/PEIF [PTPRF, fluorinated PTPR: PTPR combined with fluorinated polyethyleneimine PEIF]",concentration that effectively inhibited PD-L1 expression,10 µM
